Test results: patent US20230270815A1, “Apoptosis inducing peptide (SSTP1)” (Rajiv Gandhi Centre For Biotechnology, priority 2020, published 2023)
“Also recorded” adds a separate entry of the source. Residues, ends and D or L forms follow the SMILES beside them.

Tests used:
[1] = system: HSC-4 cells
Method: Evaluation of the cytotoxicity of SSTP1 and SSTP2 was performed using MTT assay in an oral cancer cell line, HSC-4 at various concentrations of the respective peptides.

[2] = system: HSC-4 cells; assay: MTT assay of SSTP1-induced growth inhibition with or without inhibitors; assay type: cell-based; settings: 4 h, SSTP1 10 μM; LMT-28 60 μM, Anti-IL6Rα 10 μg/ml, SC144 40 μM
From the text: (§1) a. Inhibitors for IL6 (LMT-28), JAK (Ruxolitinib), gp130 (SC-144) and JNK (SP600125) as well as Anti-IL6Rα were used to check the dispensability of each of these molecules in inducing apoptosis by SSTP1. […] The SSTP1-mediated up-regulation of pJNK was not appreciably affected by either of these inhibitors, while pcJUN up-regulation was inhibited by only SP600125 (FIGS. 7a and b). […] LMT28 binds to the interface between IL6 and gp130 to block the activity of IL6. Since SSTP1 binds to a different site on the IL6/IL6Rα/gp130 complex, i.e., the interface of IL6 and IL6Rα, there is no competitive inhibition when we add LMT28. b.

[3] = system: STAT, JNK and cJUN phosphorylation in HSC-4 cells; assay: Western blot of HSC-4 cells treated with SSTP1 and inhibitors; assay type: cell-based; settings: HSC-4, SSTP1 10 μM, SC144 40 μM, Anti-IL6Rα 10 μg/ml, 30 minutes
From the text: as §1

[4] = system: human RBCs; assay: Hemolysis of human RBCs; settings: 5 μM
Method: (§2) Further, the growth inhibitory property of SSTP1 on different cell lines with different levels of IL6Rα was investigated. Six cancer cell lines of different origin were evaluated for their IL6Rα expression in comparison to HSC-4 by western blot (FIGS. 8a and b). […] Since many of the bioactive peptides induce hemolysis, we evaluated the hemolysis induced by SSTP1 (FIG. 8d).

[5] = system: HSC-4 cells; assay: Annexin/PI staining with FACS analysis; assay type: cell-based; settings: HSC-4, 10 μM, 22 h
Method: To check whether the cytotoxic effect is due to apoptosis, Annexin/PI staining was performed, with the population with Annexin alone (early apoptotic), Annexin/PI dual stained (late apoptotic) and PI alone (dead cells) were quantified by FACS.

[6] = system: Caspase 3, 7, 8, 9 and PARP in HSC-4 cells; assay: Western blot for caspase and PARP cleavage; assay type: cell-based; settings: HSC-4, 10 μM
[7] = system: JAK/STAT, JNK/AP1, MAPK and AKT phosphorylation in HSC-4 cells; assay: Western blot of JAK/STAT, JNK/AP1, MAPK and PI3K pathway phosphorylation; assay type: cell-based; settings: HSC-4, 10 μM
From the text: a. […] The phosphorylated forms of STAT1 (Y701) and STAT3 (Y705) were probed for western blot to see the JAK/STAT pathway activation. Another phosphorylation of STAT3 at S727, which is reported to be independent of JAK activation, was also probed. […] All these biochemical analyses point out that SSTP1 preferentially down-regulates JAK-mediated-phosphorylation of STATs and MAPK, simultaneously up-regulating phosphorylation of JNK1 and cJUN. b.

[8] = system: AP1; assay: Luciferase AP1 reporter assay; assay type: cell-based; settings: in comparison to SSTP2
[9] = target: T1, IL6Rα (Homo sapiens, UniProt P08887); assay: Pull-down assay using biotin-labelled peptides; assay type: binding
T1 sequence (P08887 20-468): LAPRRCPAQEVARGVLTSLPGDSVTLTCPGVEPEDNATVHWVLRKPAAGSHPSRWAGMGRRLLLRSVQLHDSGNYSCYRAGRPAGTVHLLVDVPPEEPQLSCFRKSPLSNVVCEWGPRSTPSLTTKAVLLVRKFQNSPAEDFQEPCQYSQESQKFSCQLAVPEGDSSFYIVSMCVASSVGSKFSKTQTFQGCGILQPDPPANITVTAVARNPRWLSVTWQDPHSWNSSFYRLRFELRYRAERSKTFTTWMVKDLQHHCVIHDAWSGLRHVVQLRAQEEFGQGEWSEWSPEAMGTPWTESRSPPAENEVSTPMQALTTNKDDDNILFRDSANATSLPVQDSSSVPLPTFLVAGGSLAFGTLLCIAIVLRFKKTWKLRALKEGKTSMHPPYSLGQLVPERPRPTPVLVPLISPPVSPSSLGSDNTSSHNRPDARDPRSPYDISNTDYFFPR
From the text: To check whether SSTP1 activates the IL6/IL6R pathway by binding to IL6Rα, we checked the co-localization of SSTP1 and IL6Rα on cell membrane. […] To visualize the IL6R-dependent SSTP1 endosomal up-take, we used an early endosome marker, Rab5C. We observed the co-existence of SSTP1 and IL6Rα within early endosomes, marked by Rab5C (FIGS. 4c and d). […] The physical interaction of SSTP1 and IL6Rα was also ascertained using FRET analysis (FIG. 4f).
FIG. 4 illustrates SSTP1 interacts with IL6Rα and mediates the uptake of SSTP1 specifically FIG. 4(a) discusses HSC-4 cells were treated with Biotin labelled SSTP1 or SSTP2 (10 μM) for 30 minutes and then fixed and probed without permeabilization using mouse IL6Rα. 4(b) illustrates the co-localization of SSTP1 or SSTP2 to IL6Rα was analyzed for 11 cells and the Pearson's correlation was plotted. 4(c) illustrates cells were treated as in panel (a) and fixed and permeabilized to probe for IL6Rα, SSTP1 and Rab5c. The arrow mark indicates the co-localization. The scales bars represent 4 μm. 4(d) illustrates the Mander's overlap in SSTP1 foci were quantified for 10 cells. The average values for each cell is plotted. 4(e) illustrates the pull down assay using SSTP1-biotin and probed for IL6Rα. 4(f) illustrates the FRET analysis to show the SSTP1 binding to IL6Rα.

[10] = system: six cancer cell lines of different origin; assay: MTT assay in six cancer cell lines with up-regulated IL6Rα; assay type: cell-based; settings: 10 μM SSTP1, all six cell lines
Method: as §2

[11] = system: MDA-MB-231 cells; settings: read-out: IC50 growth inhibition (MTT)
[12] = system: human leukocytes; assay: Trypan blue exclusion of leukocytes; settings: 4.5 μM, 48 h
[13] = target: T1, IL6Rα; assay: Co-localization of peptide and IL6Rα on cell membrane (Pearson's coefficient); assay type: cell-based; set-up: fixed and probed without permeabilization using mouse IL6Rα; endogenous in cells; host or cells: HSC-4; settings: HSC-4, 10 μM, 30 minutes
From the text: To check whether SSTP1 activates the IL6/IL6R pathway by binding to IL6Rα, we checked the co-localization of SSTP1 and IL6Rα on cell membrane. […] To visualize the IL6R-dependent SSTP1 endosomal up-take, we used an early endosome marker, Rab5C. We observed the co-existence of SSTP1 and IL6Rα within early endosomes, marked by Rab5C (FIGS. 4c and d). […] The physical interaction of SSTP1 and IL6Rα was also ascertained using FRET analysis (FIG. 4f). FIG. 4 illustrates SSTP1 interacts with IL6Rα and mediates the uptake of SSTP1 specifically FIG. 4(a) discusses HSC-4 cells were treated with Biotin labelled SSTP1 or SSTP2 (10 μM) for 30 minutes and then fixed and probed without permeabilization using mouse IL6Rα. 4(b) illustrates the co-localization of SSTP1 or SSTP2 to IL6Rα was analyzed for 11 cells and the Pearson's correlation was plotted. 4(c) illustrates cells were treated as in panel (a) and fixed and permeabilized to probe for IL6Rα, SSTP1 and Rab5c. The arrow mark indicates the co-localization. The scales bars represent 4 μm. 4(d) illustrates the Mander's overlap in SSTP1 foci were quantified for 10 cells. The average values for each cell is plotted. 4(e) illustrates the pull down assay using SSTP1-biotin and probed for IL6Rα. 4(f) illustrates the FRET analysis to show the SSTP1 binding to IL6Rα.

Q: Which “cytotoxicity (MTT), result in words” value [1] does the source give for `CC[C@H](C)[C@H](NC(=O)[C@H](CCCNC(=N)N)NC(=O)[C@H](CCCNC(=N)N)NC(=O)[C@@H]1CCCN1C(=O)[C@H](CC(C)C)NC(=O)[C@@H](N)Cc1ccccc1)C(=O)N[C@@H](CO)C(=O)N[C@@H](C)C(=O)N[C@@H](CCCNC(=N)N)C(=O)N[C@H](C(=O)N[C@@H](CO)C(=O)N[C@@H](CC(C)C)C(=O)N[C@@H](Cc1ccccc1)C(=O)N1CCC[C@H]1C(=O)N[C@@H](CCCCN)C(=O)N[C@@H](CCCNC(=N)N)C(=O)NCC(=O)N[C@@H](CCCCN)C(N)=O)[C@@H](C)O` [SSTP2, FLPRRISARTSLFPKRGK-NH2, reference compound] (H-FLPRRISARTSLFPKRGK-NH2) here?
A: ineffective in inducing cytotoxicity

Q: Which results are given for `O=C(NNc1nc2cc(F)ccc2n2cccc12)c1cnccn1` [SC144]?
A: effect on SSTP1-induced growth inhibition [2]: significantly inhibited; phosphorylation of STATs, JNK and cJUN [3]: significantly reduced

Q: Which IC50 ([1]; read-out: IC50 growth inhibition (MTT), HSC-4 cells) does the source give for `CC[C@H](C)[C@H](NC(=O)[C@H](CC(C)C)NC(=O)[C@H](CC(C)C)NC(=O)[C@@H]1CCCN1C(=O)[C@H](CC(C)C)NC(=O)[C@@H](N)Cc1ccccc1)C(=O)N[C@@H](CO)C(=O)N[C@@H](C)C(=O)N[C@@H](CC(C)C)C(=O)N[C@H](C(=O)N[C@@H](CO)C(=O)N[C@@H](CC(C)C)C(=O)N[C@@H](Cc1ccccc1)C(=O)N1CCC[C@H]1C(=O)N[C@@H](CCCCN)C(=O)N[C@@H](CC(C)C)C(=O)NCC(=O)N[C@@H](CCCCN)C(N)=O)[C@@H](C)O` [SSTP1, FLPLLISALTSLFPKLGK] (H-FLPLLISALTSLFPKLGK-NH2) here?
A: 10.2 µM

Q: What about the hemolysis [4] of the same molecule?
A: 0.25%

Q: And the “increase in early apoptotic population” value [5]?
A: 3 fold

Q: What about the “Caspase 8 cleavage” value [6] of the same molecule?
A: unaffected

Q: And the “cleavage of Caspase 3, 7 and 9” value [6]?
A: active cleavage

Q: What about the “time to PARP cleavage” value [6] of the same molecule?
A: ≤ 16 h

Q: And the “STAT1 (Y701) phosphorylation” value [7]?
A: did not affect STAT1 (Y701) phosphorylation significantly

Q: What about the “STAT3 (Y705) phosphorylation” value [7] of the same molecule?
A: drastically reduced

Q: What about the pJNK2 levels [7] of the same molecule?
A: up-regulated

Q: What about the “pSTAT3(S727)” value [7] of the same molecule?
A: slight up-regulation

Q: And the pc-JUN level [7]?
A: increased level

Q: What about the “phosphorylation of JNK1” value [7] of the same molecule?
A: markedly up-regulated

Q: And the “AP1 activity (luciferase reporter)” value [8]?
A: activated

Q: And the “physical interaction with IL6Rα (pull-down)” value [9]?
A: stronger than that of SSTP2

Q: What about the “growth inhibitory potential compared to HSC-4” value [10] of the same molecule?
A: drastic increase in the growth inhibitory potential

Q: And the IC50 [11]?
A: 4.5 µM

Q: What about the viability of leukocytes [12] of the same molecule?
A: did not affect the viability; also recorded: no adverse effect; also recorded: Illustrates SSTP1 do not induce cell death in human leukocytes

Q: What about the “co-localization to IL6Rα on cell surface” value [13] of the same molecule?
A: several foci on the cell surface with co-localization
